The assay has as its system Raji. In words: Cytotoxicity against human Raji cells at 25 to 50 ug/mL after 3 days by MTT assay. Type of assay: functional, cell-based. On the technique in general: Formazan colour is commonly taken as a measure of viable cells.

Calls of active or inactive are those of the source. The calls are words filed in the database; no cut-off is given here.

On to `CCCCC/C=C/C/C=C/CCCCCCCC(=O)OC[C@H]1O[C@@H](O[C@H]2CC[C@@]3(C)C(=CC[C@H]4[C@@H]5CC[C@H]([C@H](C)CC[C@H](CC)C(C)C)[C@@]5(C)CC[C@@H]43)C2)[C@H](O)[C@@H](O)[C@@H]1O`, for which the outcome was Active. Consider `CCCCCCCCCCCCCCCCCC(=O)OC[C@H]1O[C@@H](O[C@H]2CC[C@@]3(C)C(=CC[C@H]4[C@@H]5CC[C@H]([C@H](C)CC[C@H](CC)C(C)C)[C@@]5(C)CC[C@@H]43)C2)[C@H](O)[C@@H](O)[C@@H]1O`, for which the result was Active. The value for `CCCCCCCCCCCCCCCC(=O)OC[C@H]1O[C@@H](O[C@H]2CC[C@@]3(C)C(=CC[C@H]4[C@@H]5CC[C@H]([C@H](C)CC[C@H](CC)C(C)C)[C@@]5(C)CC[C@@H]43)C2)[C@H](O)[C@@H](O)[C@@H]1O` was “Active”.

The values above are taken from ChEMBL document CHEMBL1155738, “Suppressors of cancer cell proliferation from fig (Ficus carica) resin: isolation and structure elucidation” (J Nat Prod, 2001).
